Measured values as given in patent US10532038B2, “Beta-3 adrenoceptor agonists for the treatment of pulmonary hypertension” (FUNDACIÓN CENTRO NACIONAL DE INVESTIGACIONES …, priority 2012, dated 2020).

How the values were obtained:
[1] = tested on: animals with acute PH; assay: Single dose in acute PH due to pulmonary embolism; assay type: in vivo, pigs; details: 5 μg/Kg endovenous, 10 minutes after administration
Source text: In 10 2 month old healthy pigs (weighing ≈30 kg) anesthetized, intubated and ventilated with 40% FiO2, while continuously monitoring blood pressure, heart rate (HR), oxygen saturation as well as PAP and repeated measurements of cardiac output (CO) by means of thermodilution using a Swan-Ganz catheter, acute PH was generated by means of pulmonary embolization with a suspension of microspheres (Sephadex G50 coarse; Pharmacia Biotech; Freiburg, Germany) by femoral vein route. The dose necessary for causing an increase of mean PAP≥40 mmHg to remain stable for 10 minutes was administered. At that time the animals were randomized to receive specific β3 agonist BRL37344 (5 μg/Kg) or physiological saline (vehicle).
(§1) Cardiac output was quantified by the thermodilution technique.
(§2) A value of P<0.05 was considered significant.

[2] = tested on: post-capillary chronic PH model; assay: Single dose in chronic post-capillary PH
Source text: The post-capillary PH model was generated by means of the non-restrictive surgical cerclage of the main pulmonary vein in 4 week old piglets (weighing about 10 kg). This vein drains the blood from both lower lung lobes, forming about 80% of the pulmonary mass. With analgesia and general anesthesia and under cardiac monitoring and orotraqueal intubation, the right external jugular vein and common carotid artery were located by means of surgical dissection. The Swan-Ganz catheter was introduced through the venous access to continuously monitor PAP, pulmonary capillary pressure and cardiac output. The arterial route also served to monitor systemic blood pressure during the surgical intervention. By means of right lateral thoracotomy through the fifth intercostal space, non-restrictive cerclage of the main pulmonary vein was performed by means of placing a 5 mm wide polyester band around the vessel fitting the at-rest diameter of the pulmonary venous confluence right before it enters the left atrium. […] It is therefore a progressive PH model (severity intensifies throughout follow-up). […] At the end of follow-up, the animals were euthanized and their hearts extracted for histological analysis.
(§3) The hemodynamic study was conducted by means of right heart catheterization strictly using the same methodology as in humans. Once PH was generated, the following parameters were quantified basally and after the administration of the β3 agonist, in duplicate: PAP, pulmonary capillary pressure and right atrial pressure. Cardiac output was quantified by the thermodilution technique. Five measurements were taken, and the mean of 3 measurements was considered after excluding the highest and lowest determinations. Left ventricular end-diastolic pressure was determined by means of placement of a pig-tail catheter inside the left ventricle through the femoral artery. Pulmonary vascular resistances were calculated as the difference between mean PAP and left ventricular end-diastolic pressure divided by the cardiac output and expressed in Wood units.
The effect of the drug was evaluated 10 minutes after administration in acute PH and 20 minutes after administration in chronic PH.
The continuous variables are expressed as mean±SD and qualitative variables are expressed as frequency (%). The comparison between the intervention groups with respect to changes in the variables, calculated as the difference between the post-treatment and pre-treatment value (both in acute PH and chronic PH), was performed by means of the Wilcoxon test. The evaluation of the effect of a single dose of β3 agonist on the hemodynamic parameters in chronic PH was performed by means of the Student's T test or Wilcoxon test for paired data, according to the distribution of the variables. A value of P<0.05 was considered significant.

[3] = tested on: pre-capillary chronic PH model; assay: Single dose in chronic pre-capillary PH; assay type: in vivo, Large-White pigs, Sus scrofa
Source text: The pre-capillary PH model was generated by means of pulmonary arterial embolization with synthetic microspheres 300 microns in diameter (Sephadex G50 coarse; Pharmacia Biotech; Freiburg, Germany), a variant of a model previously described (Bernd W. Bottiger, MD; Johann Motsch, MD; Joachim Dorsam, MD; UlfMieck, MD; Andre Gries, MD, forg Weimann, MD; and Eike Martin, MD. Inhaled Nitric Oxide Selectively Decreases Pulmonary Artery Pressure and Pulmonary Vascular Resistance Following Acute Massive Pulmonary Microembolism in Piglets. CHEST1996; 110:1041-47).
The protocol was initiated in 3 month old Large-White pigs, Sus scrofa species (weighing ≈40 kg). After general anesthesia and analgesia and under cardiac monitoring and orotracheal intubation, the femoral vein and artery were cannulated by means of percutaneous puncture in the cardiac hemodynamics laboratory. Through the venous access, a Swan-Ganz catheter was placed in one of the main branches of the pulmonary artery (PA), which was connected to a monitor to continuously record PAP and to quantify pulmonary capillary pressure and cardiac output. The arterial route allowed continuously recording systemic blood pressure. Venous access served to administer the microspheres towards the pulmonary arterial circulation. A solution was prepared with 500 mg of microspheres in 200 ml of physiological saline and the amount necessary to reach mean sustained PAP>40 mmHg in about 20 minutes was administered. This method was repeated weekly (3-5 embolizations) until generating chronic PH (mean PAP>25 mmHg at rest). Two-month follow-up was conducted on the animals. […] The histopathological lesions observed in the lung reproduce those shown in arterial PH or chronic thromboembolic PH in humans: arterial intima proliferation with media hypertrophy and perivascular fibrosis, vascular occlusions, and complex lesions such as vascular aneurisms or plexiform lesions.
as §1, §2

[4] = tested on: animals with post-capillary chronic PH; assay: Chronic endovenous treatment in post-capillary chronic PH (blind, randomized); details: 10 μg/Kg/day for 14 days
Source text: The post-capillary PH model was generated by means of the non-restrictive surgical cerclage of the main pulmonary vein in 4 week old piglets (weighing about 10 kg). This vein drains the blood from both lower lung lobes, forming about 80% of the pulmonary mass. With analgesia and general anesthesia and under cardiac monitoring and orotraqueal intubation, the right external jugular vein and common carotid artery were located by means of surgical dissection. The Swan-Ganz catheter was introduced through the venous access to continuously monitor PAP, pulmonary capillary pressure and cardiac output. The arterial route also served to monitor systemic blood pressure during the surgical intervention. By means of right lateral thoracotomy through the fifth intercostal space, non-restrictive cerclage of the main pulmonary vein was performed by means of placing a 5 mm wide polyester band around the vessel fitting the at-rest diameter of the pulmonary venous confluence right before it enters the left atrium. […]
as §3, with “Five measurements were taken, and the mean of 3 measurements was considered after excluding the highest and lowest determinations.” left out
The continuous variables are expressed as mean±SD and qualitative variables are expressed as frequency (%). The comparison between the intervention groups with respect to changes in the variables, calculated as the difference between the post-treatment and pre-treatment value (both in acute PH and chronic PH), was performed by means of the Wilcoxon test. […]

[5] = tested on: animals with post-capillary chronic PH; assay: Chronic oral treatment in post-capillary chronic PH (blind, randomized); assay type: in vivo, pigs; details: 50 mg/12 hours orally for 14 days; intermediate analysis (N=4); control group showed an increase of PVRs
Protocol: as §1
To evaluate the chronic effect of treatment with Mirabegron, a 50 mg tablet was administered orally every 12 hours in all cases. The fixed dose for all the animals was based on doses used in humans for different pathologies (never PH because it has never been tested in this entity), resulting in no adverse effects. The dose used for treating neurogenic bladder is 25 to 50 mg/day, whereas in studies designed to evaluate the effect of this drug in heart failure (see “Beta 3 Agonist Treatment in Heart Failure (Beat-HF) NCT01876433”), the expected initial dose is 25 mg/12 hours, being titrated to a maximum of 150 mg/12 hours. The dose of 50 mg/12 hours intends to be an average dose that can be easily extrapolated to patients with whom an efficacy study could be conducted knowing that the side effect profile is favorable.
Another cohort of animals with post-capillary chronic PH were randomized into chronic therapy for 14 days with Mirabegron (Myrbetrig® 50 mg/12 hours) or placebo. Right heart catheterization was performed pre- and post-treatment.

[6] = 5 μg/Kg endovenous single dose, 20 minutes after administration

C[C@H](Cc1ccc(OCC(=O)O)cc1)NC[C@H](O)c1cccc(Cl)c1 [BRL 37344, [4-[(2R)-2-[[(2R)-2-(3-clorophenyl)-2-hydroxyethyl]amino]propyl]phenoxy]acetic acid]
variation of mean systemic blood pressure ([1]; placebo 1.0±7.4, p=0.31, not significant): −4.6±8.0
change of CO (post- minus pre-treatment) ([1]; placebo −0.20±0.31, p=0.008): 0.62±0.53
change of PVR (post- minus pre-treatment) ([1]; placebo −0.4±1.3, p=0.008): −6.5±2.4
variation of HR ([1]; placebo −3.0±7.1, p=0.84, not significant): −4.4±14.1
change of PAPm (post- minus pre-treatment) ([1]; placebo −3.8±4.2, p=0.008): −13.0±4.5
increase of oxygen saturation [2, 6]: 3.2%
increase of the cardiac output [2, 6]: 18%
reduction of pulmonary vascular resistances [2, 6]: 36%
reduction of systolic pulmonary pressure [2, 6]: 23%
reduction of the mean PAP [2, 6]: 30%
cardiac output after administration ([2]; 5 μg/Kg endovenous, 20 minutes, from 3.29±0.9 before, p=0.07): 3.90 ± 1.5 L/min
pulmonary vascular resistances after administration ([2]; 5 μg/Kg endovenous, 20 minutes, from 10.0±4.3 before, p=0.002): 6.4±3.2 Wood units
mean PAP after administration ([2]; 5 μg/Kg endovenous, 20 minutes, from 37.6±9.8 before, p<0.001): 28.8±9.8 mmHg
systolic pulmonary pressure after administration ([2]; 5 μg/Kg endovenous, 20 minutes, from 50.6±15.5 before, p<0.001): 38.9±9.9 mmHg
heart rate after administration ([2]; 5 μg/Kg endovenous, 20 minutes, from 83.8±21.1 before, p=0.20, no significant change): 87.8±16.8 bpm
systemic blood pressure after administration ([2]; 5 μg/Kg endovenous, 20 minutes, from 85.7±13.9 before, p=0.11, no significant change): 79.9±6.9 mmHg
oxygen saturation after administration ([2]; 5 μg/Kg endovenous, 20 minutes, from 90.88±2.64 before, p=0.001): 93.75±3.01%
changes in heart rate [3, 6]: without significant changes
changes in systemic blood pressure [3, 6]: without significant changes
decrease of the mean PAP [3, 6]: 32%
increase of oxygen saturation [3, 6]: 2%
reduction of systolic PAP [3, 6]: 25%
mean PAP after administration ([3]; 5 μg/Kg endovenous, 20 minutes, from 29.5±2.1 before): 20.0±5.7 mmHg
systolic PAP after administration ([3]; 5 μg/Kg endovenous, 20 minutes, from 37.5±6.4 before): 28.0±8.5 mmHg
change of pulmonary vascular resistances (PVRs) after 14 days ([4]; osmotic pump, jugular vein, placebo +1.3±1.2, p=0.042): −1.2±1.6 WU
change in heart rate after 14 days ([4]; placebo 3.0±28.2, p=0.49, not significant): −8.2±15.1 bpm
change in systemic mean blood pressure after 14 days ([4]; placebo 4.3±7.0, p=0.25, not significant): 2.3±6.9 mmHg

Nc1nc(CC(=O)Nc2ccc(CCNC[C@H](O)c3ccccc3)cc2)cs1 [Mirabegron]
change of PVRs after 14 days [5]: a reduction of PVRs was observed
